Assay results as given in patent EP3549947B1, “POLYRGD PEPTIDES OBTAINED BY CHEMICAL AND BIOTECHNOLOGY METHODS WITH INJURY REDUCING AND/OR NEUROPROTECTIVE EFFECTS AND A KIT FOR THEIR ACTIVITY EVALUATION” (Uniwersytet Gdanski, priority 2018, dated 2019).
“Also recorded” adds a separate entry of the source.

Experiments:
primary neural cells = assay: Multifactorial in vitro model of neurological injury (six injury factors), CellTiterBlue viability; assay type: cell-based, Wistar rat; conditions: 1-hour injury factor (glucose deprivation, acidosis pH 6.35 + 200 mM sodium lactate, 10 mM sodium azide, 400 µM glutamic acid, 800 µM NMDA or 800 µM kainic acid), then 20 hour incubation with 100 µM peptide (RGD10: 1 µg/ml)
Procedure: (§1) Primary neural cortical cultures were obtained from Wistar rat E18.5 embryos. To this end, pregnant rat females were anesthetized and euthanized in a CO2 chamber. In some cases, euthanasia was performed by isoflurane. The cortex tissue was excised from the isolated embryos and washed with HBSS buffer, supplemented with a mixture of penicillin and streptomycin, and HEPES. Afterwards, the cortex tissue was trypsinized for 10 minutes at 37 °C and homogenized mechanically in order to disintegrate the tissue to the form of a cell suspension. The cells were the centrifuged at 300 rcf for 4 minutes, resuspended once more in HBSS and quantified in a Bürker chamber in order to obtain a cell suspension of proper density. […]
(§2) A subject of the invention constitutes a diagnostic methodology for measuring the neuroprotective activity of peptides in a model of several factors co-occurring during any neurological injury. […] These injury conditions were optimized so that the strength of each injury factor causes a 30-40% decrease in response in a CellTiterBlue-based evaluation (a CTB fluorophore in a modified biochemical assay of the MTT type) of cellular viability, relying on quantitative analysis of mitochondrial metabolic functions. […] The fluorescence intensity of the CTB agent is measured spectrofluorimetically (560ex/590em) and is proportional to the number of living cells. […]

[1] = test system: primary neural cortical cultures; assay: Viability assay (CellTiterBlue) of primary neural cultures exposed to polyRGD peptides; assay type: cell-based, Wistar rat; conditions: reference peptide at 50 µM, 20 hour exposure
Procedure: as §1, §2

Molecule | injury-reducing and/or neuroprotective activity (neural cell viability) (primary neural cells) | injury-reducing and/or neuroprotective activity (neural cell viability) (primary neural cells; listed as RGD 1) | cytotoxic effects (viability of neural culture) [1]
N=C(N)NCCC[C@H](N)C(=O)NCC(=O)N[C@@H](CC(=O)O)C(N)=O [RGD1, H2N-RGD-amide] | significant increase in neural cell viability with regard to all injury factors; also recorded: significant injury-reducing and/or neuroprotective efficacy with respect to all six injury factors | broadest spectrum of activity | 
Tat(49-57)NH2 [TAT peptide] |  |  | None of the analyzed peptides displayed significant cytotoxic effects in the assessed concentration ranges, as well as a reference factor
